Seven compounds from patent US11440939B2, “Anticancer peptides” (IDP DISCOVERY PHARMA, S.L., priority 2017, dated 2022) can be followed below.

The structures appear in SMILES notation. Numbered stars: 1 amine (or outer) side, 2 acyl side, 3 side chain; on linkers, the order of the positions; unused ones are H or OH. Bridge positions count the residues as written; N and C are the ends. Square brackets hold non-standard residues; d marks the D form. Peptide text beside a SMILES is read from it. ξ: configuration not given here. ξαMeNle(6-ylidene) = CC(CCCC=[*:3])(N[*:1])C(=O)[*:2]; X1 = CC(CCCCCCC=[*:3])(N[*:1])C(=O)[*:2]; R8 = C=CCCCCCC[C@@](C)(N)C(=O)O; S5 = C=CCCC[C@](C)(N)C(=O)O

Data set [1] deals with NCI-H82. In kind it is cell-based. The conditions noted are these: 72 h. Here is the method:
NCI-H82, epithelial (small cell lung cancer, SCLC), ATCC-CRL-5811;
(§1) Cell line MCF-7 was cultured in incubator under CO2 (6%) at 37° C. in DMEM high glucose (Dulbecco's Modified Eagle Solution, Gibco-BRL 31966-21) medium with 10% fetal bovine serum inactivated (FBS) (Gibco-BRL 10106-169). Cell lines HL-60, NCI-H524, NCI-H526, NCI-H69, NCI-H82, NCI-H187 and H5B were cultured in an incubator at 37° C. in RPMI-1640 (Sigma R8758) medium with 10% of fetal bovine serum inactivated (FBS) and 2 mM glutamine (Sigma G7513). Cell line NCI-H510A was cultured in incubator in F12K medium with 10% of fetal bovine serum inactivated (FBS). Cell line GBM-18 and GBM-27 were cultured in incubator under CO2 (6%) at 37° C. in complete medium (Neurobasal+B27+Glutamax+Growth factors).
(§2) During the amplification step and the assays, adherent cells were rinsed with DPBS (Dulbecco's Phosphate Buffered Saline, Sigma D1283) three times and afterward treated for 5 minutes with trypsin ([…]) (Gibco-BRL, 15400054) in solution of DPBS at 37° C., and, once detached, transferred in the culturing medium. No-adherent cells were centrifuged and transferred in the culturing medium. Cells were counted in a Neubauer chamber after labelling with Tripan-Blue.
(§3) MCF-7, NCI-H187, NCI-H69, NCI-H526 and H5B cells were seeded at a density of 5000 cells/well; NCI-H524 and NCI-H82 were seeded at a density of 2500 cells/well; HL-60 and NCI-H510A at 10000 cells/well in 100 μl of medium in 96 well plates. After 24 h, the compounds to be tested were added to calculate the dose/response curve at the starting concentration of 100 μM with serial dilutions (1:1). Controls were the untreated cells. Each experiment was performed in triplicate.
(§4) Cells were incubated during 72 h in incubator under CO2 atmosphere at 37° C. Cell viability was measured by means of MTT (3-(4,5-dimethylthiazol-2-yl)-2,5-diphenyltetrazolium bromide) assay, Alamar Blue® (Biosource DAL1100) and Hexosaminidase activity test, consecutively, following manufacturer instructions.
(§5) MTT: 1. Stock solution of MTT (475989 Calbiochem) was 5 mg/ml in PBS 1×. As negative control (experiment noise) 3 wells were treated with 20 μl/well of a solution of SDS 10% in H2O. The same control was used for Alamar Blue/Hexosaminidase. 10 μl/well of MTT solution were added and the plate was incubated for 3-4 hr. The medium was discarded and 100 μl of extracting buffer (PBS 1×, 15% SDS, 50% […] N,N-Dimethylformamide, pH 4,7) were added to each well. Plates were incubated for 16 h at room temperature under orbital shaking. Absorbance at 570 nm was finally measured.
(§6) Alamar Blue: 10 μl Alamar Blue solution was added to each well and the plates were incubated for […] in the incubator. Fluorescence ratio at 535/590 (excitation/emission) was measured in Cytofluor (Millipore) fluorimeter. Blank control was determined by lysis of untreated cells with con 2% of Triton X100, right before adding Alamar Blue solution.
(§7) Hexosaminidase activity test: after Alamar Blue lecture, medium was discarded and plates were rinsed once with PBS. 60 μl hexosaminidase substrate (p-nitrophenol-N-acetyl-beta-D-glucosamide 7.5 mM [Sigma N-9376], sodium citrate 0.1 M, pH 5.0, 0.25% Triton X-100) was added to each well and the plates were incubated at 37° C. for 2-5 h, according to the cell type (hexosaminidase activity changes according to the cell type). […] Blank control was the same as described before.
(§8) Data analysis was performed calculating the percentage of cell viability normalized vs. the values of negative control, which was considered equal to 100%. The dose/response curve was fitted through the sigmoidal equation dose-response (variable slope) and the EC50 values were calculated as follow: Y=Bottom+(Top−Bottom)/(1+10^{[(Log EC50−X)*HillSlope]},

The test system of data set [2] is cancer cell lines. As to the kind of experiment: Inhibition of cancer cell proliferation, general statements. In kind it is cell-based. Here is the method: as §3, §4, §8
Data set [3] deals with NCI-H187. In kind it is cell-based. The conditions noted are these: 72 h. Here is the method:
NCI-H187, epithelial (small cell lung cancer, SCLC), ATCC-CRL-5804;
as §1, §2, §3, §4, §5, §6, §7, §8

For data set [4], the system named is NCI-H510A. In kind it is cell-based. The conditions noted are these: 72 h. Here is the method:
(§9) NCI-510A, epithelial (small cell lung cancer, SCLC), ATCC-HBT-124; and Hepatocytes (normal liver), from a donor was provided by Foundation DTI-Donation & Transplantation Institute from surgical wastes and from organs not suitable for transplantation
as §1, §2, §3, §4, §5, §6, §7, §8

The subject of data set [5] is NCI-H524. The format is cell-based. The conditions noted are these: 72 h. Here is the method:
NCI-H524, lung (small cell lung cancer, SCLC), ATCC-CRL-5831;
as §1
During the amplification step and the assays, adherent cells were rinsed with DPBS (Dulbecco's Phosphate Buffered Saline, Sigma D1283) three times and afterward treated for 5 minutes with trypsin ([…]) (Gibco-BRL, 15400054) in solution of DPBS at 37° C., and, once detached, transferred in the culturing medium. No-adherent cells were centrifuged and transferred in the culturing medium. Cells were counted in a Neubauer chamber after labelling with Tripan-Blue. […]
as §4
MTT: 1. […] Absorbance at 570 nm was finally measured.
Alamar Blue: 10 μl Alamar Blue solution was added to each well and the plates were incubated for […] in the incubator. Fluorescence ratio at 535/590 (excitation/emission) was measured in Cytofluor (Millipore) fluorimeter. Blank control was determined by lysis of untreated cells with con 2% of Triton X100, right before adding Alamar Blue solution. […]

Data set [6] deals with NCI-H526. The conditions noted are these: 72 h.
Method: NCI-H526, epithelial (small cell lung cancer, SCLC), ATCC-CRL-5811;
During the amplification step and the assays, adherent cells were rinsed with DPBS (Dulbecco's Phosphate Buffered Saline, Sigma D1283) three times and afterward treated for 5 minutes with trypsin ([0.5 g/ml]/EDTA [0.2 g/ml]) (Gibco-BRL, 15400054) in solution of DPBS at 37° C., and, once detached, transferred in the culturing medium. No-adherent cells were centrifuged and transferred in the culturing medium. Cells were counted in a Neubauer chamber after labelling with Tripan-Blue. […]
MTT: 1. […] Absorbance at 570 nm was finally measured. […]
The subject of data set [7] is Human hepatocytes. Briefly: Hepatotoxicity assay, trypan blue exclusion, 24 h. The conditions noted are these: human hepatocytes, 0.5% SDS. The format is cell-based.
Excerpt: as §9
Human liver from a donor was subjected to hepatocyte isolation by using a two-step tissue microperfusion technique taking maximum care to avoid anoxia before cannulation, since hepatocytes are cells highly sensitive to oxygen levels. An initial anoxic state could result in a low viability of the cells, and will later affect their metabolic capacity in the culture. Briefly, liver tissue was cannulated by using the accessible vessels with a 1 mm-diameter needle. A balanced salt solution was injected to clean the organ by using a peristaltic pump adjusted to a flow rate of 18-20 ml/min. After washing, a solution containing collagenase was added for liver disintegration. The cell suspension obtained using this process was filtered and centrifuged and, after a couple of washings to remove collagenase, cells were re-suspended in culture medium Ham's F-12/William (1:1) medium supplemented with 2 mM glutamine, […] sodium selenite, 2% newborn calf serum, 50 mU/ml penicillin, 50 μg/ml streptomycin, 0.1% bovine serum albumin, 1.68 mM NAME, 26 mM sodium bicarbonate, 25 μg/ml transferrin, 65.5 μM ethanolamine, 7.2 μM linoleic acid, 17.5 mM glucose, 6.14 mM ascorbic acid and 10 nM insulin.
After resuspension, a cell aliquot was removed and viability was determined by cell counting using the trypan blue exclusion method. Trypan blue uptake is the result of cell membrane alteration and in consequence of cell death. Thus, to quantify cell viability, 0.4% trypan blue in saline was added to the cells and these were immediately loaded in a Neubauer chamber. Viable cells were counted in 5 different fields under the optical microscope as non-blue cells. % Viability=Number of non-blue cells×100/Number of total cells Viability and Hepatoxicity Assay
Human hepatocytes isolated and re-suspended as described before were seeded at 100,000 viable cells/well on 96 collagen-coated plates in order to assess compound's cytotoxicity. After 1 hour in culture, medium was renewed to eliminate cell debris. Cultured human hepatocytes were allowed to stay in culture for 24 hours prior performing the experiments. After 24 h, the compounds to be tested were added to calculate the dose/response curve at the starting concentration of 400 μM with serial dilutions. Each experiment was performed in triplicate. Cells were incubated during 24 h in incubator under CO2 atmosphere at 37° C.
The viability was determined by cell counting using the trypan blue exclusion method. % Viability=Number of non-blue cells×100/Number of total cells Statistics

In the case of `CC(C)C[C@@H]1NC(=O)[C@H](C)NC(=O)[C@H](CCC(N)=O)NC(=O)[C@H](Cc2ccccc2)NC(=O)C(C)(NC(=O)[C@H](CC(C)C)NC(=O)[C@H](CC(N)=O)NC(=O)[C@@H](NC(=O)[C@H](CC(C)C)NC(=O)[C@H](CCCCN)NC(=O)[C@@H](NC(=O)[C@@H](N)CCCNC(=N)N)C(C)C)C(C)C)CCCCCCC=CCCCC(C)(C(=O)N[C@H](C(=O)N2CCC[C@H]2C(N)=O)C(C)C)NC(=O)[C@H](CCC(N)=O)NC(=O)[C@H](CCCNC(=N)N)NC1=O` (stereo partly drawn) [IDP-H14-H2-01] (H-RVKLVNL[X1]FQALRQ[ξαMeNle(6-ylidene)]VP-NH2; staple 8-15; N-terminus and C-terminus assumed), the EC50 in data set [1], in data set [3] and in data set [4] was around 7.5 µM each time. Further, in data set [2], the “inhibition of cancer cell proliferation (in words)” value (“inhibition” for short) was “active”.

`CC(C)C[C@@H]1NC(=O)[C@H](CC(N)=O)NC(=O)[C@H](C(C)C)NC(=O)C(C)(NC(=O)[C@H](CCCCN)NC(=O)[C@@H](NC(=O)[C@H](CCCNC(=N)N)NC(=O)[C@H](CC(N)=O)NC(=O)[C@@H](N)CCCNC(=N)N)C(C)C)CCCC=CCCCC(C)(C(=O)N[C@@H](Cc2ccccc2)C(=O)N[C@@H](C)C(=O)N[C@H](C(=O)N[C@@H](CC(C)C)C(=O)N[C@@H](CCCNC(=N)N)C(=O)N[C@@H](CCC(=O)O)C(=O)N[C@@H](Cc2c[nH]cn2)C(N)=O)[C@@H](C)O)NC1=O` (stereo partly drawn) [H02] (H-RNRVK[ξαMeNle(6-ylidene)]VNL[ξαMeNle(6-ylidene)]FATLREH-NH2; staple 6-10; N-terminus and C-terminus assumed): the EC50 (as a rule, the concentration needed to bring the measured effect to its halfway point) is around 15 µM in data set [5] and around 10 µM in data set [6].

Consider `CC(C)C[C@H](NC(=O)[C@H](CCCCN)NC(=O)[C@@H](NC(=O)[C@@H](N)CCCNC(=N)N)C(C)C)C(=O)N[C@H](C(=O)N[C@@H](CC(N)=O)C(=O)N[C@@H](CC(C)C)C(=O)NC1(C)CCCCCCC=CCCCC(C)(C(=O)N[C@H](C(=O)N2CCC[C@H]2C(N)=O)C(C)C)NC(=O)[C@H](CCC(N)=O)NC(=O)[C@H](CCCNC(=N)N)NC(=O)[C@H](CC(C)C)NC(=O)[C@H]([C@@H](C)O)NC(=O)[C@H](C)NC(=O)[C@H](Cc2ccccc2)NC1=O)C(C)C` (stereo partly drawn) [IDP-H14-Q13] (H-RVKLVNL[X1]FATLRQ[ξαMeNle(6-ylidene)]VP-NH2; staple 8-15; N-terminus and C-terminus assumed), for which the EC50 was around 7.5 µM in data set [1], around 7.5 µM in data set [3] and around 12.5 µM in data set [4]. Also, the “inhibition” value in data set [2] is “active”.

Turning to `CC(C)C[C@H](NC(=O)[C@H](CCCCN)NC(=O)[C@@H](NC(=O)[C@H](CCCNC(=N)N)NC(=O)[C@H](CC(N)=O)NC(=O)[C@@H](N)CCCNC(=N)N)C(C)C)C(=O)N[C@H](C(=O)N[C@@H](CC(N)=O)C(=O)N[C@@H](CC(C)C)C(=O)N[C@]1(C)CCCCCCC=CCCC[C@@](C)(C(N)=O)NC(=O)[C@H](CCC(=O)O)NC(=O)[C@H](CCCNC(=N)N)NC(=O)[C@H](CC(C)C)NC(=O)[C@H]([C@@H](C)O)NC(=O)[C@H](C)NC(=O)[C@H](Cc2ccccc2)NC1=O)C(C)C` [H04] (H-RNRVKLVNL[R8]FATLRE[S5]-NH2; staple 10-17; N-terminus and C-terminus assumed), the EC50 in data set [5] is around 9 µM; in data set [6], around 11 µM.

For `CC(C)C[C@H](NC(=O)[C@H](CCCCN)NC(=O)[C@@H](NC(=O)[C@@H](N)CCCNC(=N)N)C(C)C)C(=O)N[C@H](C(=O)N[C@@H](CC(N)=O)C(=O)N[C@@H](CC(C)C)C(=O)NC1(C)CCCCCCC=CCCCC(C)(C(=O)N[C@H](C(=O)N[C@@H](Cc2ccccc2)C(N)=O)C(C)C)NC(=O)[C@H](CCC(=O)O)NC(=O)[C@H](CCCNC(=N)N)NC(=O)[C@H](CC(C)C)NC(=O)[C@H]([C@@H](C)O)NC(=O)[C@H](C)NC(=O)[C@H](Cc2ccccc2)NC1=O)C(C)C` (stereo partly drawn) [IDP-H14-F14] (H-RVKLVNL[X1]FATLRE[ξαMeNle(6-ylidene)]VF-NH2; staple 8-15; N-terminus and C-terminus assumed), the EC50 in data set [1], in data set [3] and in data set [4] was around 7.5 µM each time. In addition, the “inhibition” value in data set [2] is “active”.

With `CCCCCCCCCCCCOS(=O)(=O)[O-].[Na+]` [SDS, reference compound], in data set [7], the “% Viability” value was found to be 13.6%.

On to `CC(C)C[C@H](NC(=O)[C@H](CCCCN)NC(=O)[C@@H](NC(=O)[C@@H](N)CCCNC(=N)N)C(C)C)C(=O)N[C@H](C(=O)N[C@@H](CCC(N)=O)C(=O)N[C@@H](CC(C)C)C(=O)NC1(C)CCCCCCC=CCCCC(C)(C(=O)N[C@H](C(=O)N2CCC[C@H]2C(N)=O)C(C)C)NC(=O)[C@H](CCC(=O)O)NC(=O)[C@H](CCCNC(=N)N)NC(=O)[C@H](CC(C)C)NC(=O)[C@H]([C@@H](C)O)NC(=O)[C@H](C)NC(=O)[C@H](Cc2ccccc2)NC1=O)C(C)C` (stereo partly drawn) [IDP-H14-Q6] (H-RVKLVQL[X1]FATLRE[ξαMeNle(6-ylidene)]VP-NH2; staple 8-15; N-terminus and C-terminus assumed), for which the concentration giving a half-maximal response (EC50) in data set [1] was around 7.5 µM; in data set [3], around 7.5 µM; in data set [4], around 12.5 µM. Further, the “inhibition” value in data set [2] is given as “active”.
